According to patent publication US8986946B2, “Real-time method for the detection of viable micro-organisms” (Nederlandse Organisatie Voor …, priority 2007, dated 2015):

Columns and labels:
[1] = test system: Saccharomyces cerevisiae ATCC 9763; test: Real-time viability assay, uptake of the phototautomeric compound followed by fluorescence; assay type: cell-based; settings: for uptake by yeast: 50 μM compound in 100 mM potassium phosphate buffer pH 2 (FIG. 6)
Experimental: (§1) A solution of 100 μl containing 50 μM compound in 100 mM potassium phosphate buffer pH 7 is used for recording the excitation and emission wavelengths in a Tecan microplate fluorometer. The ratio of emission intensity at pH 7.5 and 1 as well as the ratio of emission intensity at pH 7 and 2 (indicated by the asterisk) was recorded with 100 μl solution containing 50 μM compound in 100 mM potassium phosphate buffer pH 2 or 7 in a Tecan microplate fluorometer at optimal excitation wavelength. Uptake of compounds by viable and nonviable (heat-inactivated for 5 minutes at 95° C.) Staphylococcus aureus ATCC 6538 and Sachromyces serervisiae ATCC 9763 cells is real-time monitored in a Tecan microplate fluorometer at optimal excitation and emission wavelengths. A solution of 50 μM compound in 100 mM potassium phosphate buffer pH2 was added to 100 μl cell suspensions at t=20 seconds, uptake of compound was monitored for 180 seconds.
(§2) A solution of 100 μl containing 50 μM o-hydroxycinnamic acid, 100 mM potassium phosphate buffer pH 2, was added at t=20 seconds, as indicated by the arrow.
Real-time viability assay for various micro-organisms. Bacterial and yeast strains were cultured overnight at 37° C. at 100 RPM in 10-ml of a rich trypticase soy broth (TSB) medium. A culture volume of 5 ml is centrifuged at 2000 RPM for 10 min and resuspended in 2 ml of physiological salt solution (peptone, 0.9% NaCl) followed by an OD600 measurement. The yeast strains include Candida albicans ATCC 10231, Saccharomyces cereuisiae ATCC9763 and the bacterial strains include A Staphylococcus aureus strain ATCC 6538, Enterobacter cloacae LMG 2783, Escherichia coli ATCC 10536, Bacillus subtilis DSM618 and Pseudomonas aeruginosa ATCC27853. The assay is carried out as specified above for Staphylococcus aureus. […] Accordingly, quantification of the number of viable cells of the yeast and other fungal strains should occur on the basis of increase of fluorescence over the measured period of time.

[2] = test system: Staphylococcus aureus ATCC 6538; test: as above; assay type: cell-based; settings: for uptake by bacteria: 50 μM compound in 100 mM potassium phosphate buffer pH 2 (FIG. 6); for rise in fluorescence after addition of the compound, viable vs nonviable cells: 50 μM compound, 100 mM potassium phosphate buffer pH 2, added at t=20 seconds
Experimental: as §1, §2
(§3) Typical real-time viability assay. Staphylococcus aureus strain ATCC 6538 is cultured overnight at 100 RPM at 37° C. in 10-ml of a rich trypticase soy broth (TSB) medium. A culture volume of 5 ml is centrifuged at 2000 RPM for 10 min and resuspended in 2 ml of physiological salt solution (peptone, 0.9% NaCl) followed by an OD600 measurement. A culture suspension of 1 ml is heat-inactivated by incubation at 95° C. for 5 min. (nonviable control cell suspension). A volume of 100 μl of a viable and a nonviable cell suspension is pipetted in separate wells of a polystyrene 96-well, flat-bottom microtiter plate. Subsequently, fluorescence emission kinetics (excitation wavelength 290 nm; emission wavelength 402 nm) are monitored for 500 seconds with a time interval of 200 ms, number of reads 5. […] Hereafter, the fluorescence signal decays on a minute time-scale as a result of the loss of membrane integrity or cell viability. […] From 60.2 seconds the signal will remain constant as the membrane is permeable in nonviable cells allowing quenching of fluorescence by acidification of the intracellular environment.

[3] = test system: yeast (and other fungal) strains: Candida albicans ATCC 10231, Saccharomyces cereuisiae ATCC9763; test: Real-time viability assay for various micro-organisms (yeast strains); assay type: cell-based, Saccharomyces cerevisiae; settings: 100 mM potassium phosphate buffer pH 2
Experimental: as §3, with “environment. Real-time viability assay for various micro-organisms. Bacterial and yeast strains were cultured overnight at 37° C. at 100 RPM in 10-ml of a rich trypticase soy broth (TSB) medium. A culture volume of 5 ml is centrifuged at 2000 RPM for 10 min and resuspended in 2 ml of physiological salt solution (peptone, 0.9% NaCl) followed by an OD600 measurement. The yeast strains include Candida albicans ATCC 10231, Saccharomyces cereuisiae ATCC9763 and the bacterial strains include A Staphylococcus aureus strain ATCC 6538, Enterobacter cloacae LMG 2783, Escherichia coli ATCC 10536, Bacillus subtilis DSM618 and Pseudomonas aeruginosa ATCC27853. The assay is carried out as specified above for Staphylococcus aureus. […] Accordingly, quantification of the number of viable cells of the yeast and other fungal strains should occur on the basis of increase of fluorescence over the measured period of time.” for “environment.”

[4] = test system: Saccharomyces cerevisiae ATCC 9763; test: Real-time viability assay, uptake of the phototautomeric compound followed by fluorescence; assay type: cell-based; settings: 2 mM salicylic acid, pH 2

O=C(O)c1ccc2ccccc2c1O [1H-2NA, 1-hydroxy-2-naphtoic acid]
uptake by yeast [1]: taken up by both bacteria and yeast | uptake by bacteria [2]: taken up by both bacteria and yeast | accumulation of the compound by yeast (and other fungal) strains [3]: relatively slowly | decay of fluorescent signal in yeast (and other fungal) strains [3]: no decay of fluorescent signal

O=C(O)c1c(O)ccc2ccccc12 [2H-1NA, 2-hydroxy-1-naphtoic acid]
accumulation of the compound by yeast (and other fungal) strains [3]: relatively slowly | decay of fluorescent signal in yeast (and other fungal) strains [3]: no decay of fluorescent signal

Nc1cc2ccccc2cc1C(=O)O [3-amino-2-napthoic acid]
uptake by yeast [1]: taken up by both bacteria and yeast | uptake by bacteria [2]: taken up by both bacteria and yeast

Nc1ccc(C(=O)O)c(O)c1 [4-amino salicylic acid]
uptake by yeast [1]: hardly taken up by yeast

O=C(O)c1ccc(O)cc1O [4-hydroxy salicylic acid]
uptake by yeast [1]: hardly taken up by yeast

Nc1ccc(O)c(C(=O)O)c1 [5-amino salicylic acid]
uptake by yeast [1]: hardly taken up by yeast

Cn1c(=O)n(C)c2cc(C(=O)O)c(N)cc21 [6-amino-1,3-dimethyl-2-oxo-2,3-dihydro-1H-benzoimidazole-5-carboxylic acid]
rise in fluorescence after addition of the compound, viable vs nonviable cells ([1]; 50 μM compound, 100 mM potassium phosphate buffer pH 2, added at t=20 seconds): only observed for viable Saccharomyces cereuisiae cells

O=C(O)c1cc2oc3ccccc3c2cc1O [S350729]
uptake by yeast [1]: taken up by both bacteria and yeast | uptake by bacteria [2]: taken up by both bacteria and yeast

O=C(O)c1cc(O)ccc1O [gentisic acid, 2,5-dihydroxybenzoic acid]
rise in fluorescence after addition of the compound, viable vs nonviable cells [2]: only observed for viable Staphylococcus aureus cells

O=C(O)C=Cc1ccccc1O [o-hydroxycinnamic acid]
uptake by yeast [1]: hardly taken up by yeast | rise in fluorescence after addition of the compound, viable vs nonviable cells [2]: only observed for viable Staphylococcus aureus cells

O=C(O)c1ccccc1O [salicylic acid]
uptake by yeast [1]: taken up by both bacteria and yeast | permeability of the cell membrane to the compound, compared with bacteria [4]: less-permeable | uptake by bacteria [2]: taken up by both bacteria and yeast | time constant of the acidification process ([2]; 2 mM salicylic acid, 100 mM potassium phosphate buffer pH 2): 0.005 s⁻¹ | time scale of the rapid rise in fluorescence (transfer from the extracellular to the intracellular medium) ([2]; 100 μl of 2 mM salicylic acid, 100 mM potassium phosphate buffer pH 2, injected at 60 seconds): < 200 ms | uptake of salicylic acid by the bacteria (time) ([2]; stationary culture, 2 mM salicylic acid, 100 mM potassium phosphate buffer pH 2): within seconds | accumulation of the compound by yeast (and other fungal) strains [3]: relatively slowly | decay of fluorescent signal in yeast (and other fungal) strains [3]: no decay of fluorescent signal
